Measured values published in patent publication US11577063B2, “Soluble microneedle containing ingredient for controlling release of neurotransmitters” (LG HOUSEHOLD & HEALTH CARE LTD., priority 2015, dated 2023).

Experiments:
[1] = target: SNARE complex (SNAP25, SynH3 and Vps proteins) (Homo sapiens, UniProt P60880+P63027+Q16623); test: Inhibition of SNARE complex formation (SDS-PAGE); type: biochemical; details: FIG. 4; for ability of inhibiting SNARE complex formation compared with myricetin: at low concentrations; for inhibition of SNARE complex formation: polyphenol 1-50 ppm, room temperature 30 minutes, 12% SDS-PAGE
Description: SDS-PAGE (sodium dodecyl sulfate-polyacrylamide gel electrophoresis) analysis was performed to investigate the inhibition of SNARE complex formation by polyphenols such as ampelopsin, kaempferol, myricetin, etc. It was investigated whether the SNARE complex formed when SNAP25, SynH3 and Vps proteins are mixed at a molar ratio of 1:1:1 was inhibited by the addition of the polyphenol compound at a concentration of 1-50 ppm. After adding the respective proteins dropwise into a 1-mL tube, the polyphenol compound was added and reaction was conducted at room temperature for 30 minutes. Then, it was investigated whether the SNARE complex was formed by electrophoresing on 12% SDS-PAGE.

[2] = system: C2C12 cells co-cultured with neuroblasts; test: Inhibition of muscle contraction by polyphenols, C2C12 cells co-cultured with neuroblasts; type: cell-based; details: FIG. 7; for number of contractions of the C2C12 cells: 50 ppm polyphenol, 2 hours incubation, contractions counted for 30 seconds; for effect of inhibiting neurotransmitter release compared with myricetin: 50 ppm, 2 hours
Description: C2C12 cells were cultured in DMEM medium supplemented with 10% fetal calf serum and 1% antibiotic on a plate. Then, neuroblasts were co-cultured additionally on the same plate. When the C2C12 cells began contraction, the number of contractions by the C2C12 cells was measured for 30 seconds. Then, after completely removing the medium and washing 3 times with PBS, the cells were incubated for 2 hours after adding a calf serum-free medium and 50 ppm of the polyphenol compound. Then, the inhibition of muscle contraction was investigated by measuring the number of contractions of the C2C12 cells again for 30 seconds.

[3] = Maximum content of ampelopsin in cosmetic composition or microneedle; type: physicochemical
Description: When ampelopsin is prepared into a cosmetic composition, only less than 0.5% (based on 5% PEG-400 and 70% water) of ampelopsin can be contained in the cosmetic composition. In contrast, a microneedle prepared by the method according to the present disclosure may contain ampelopsin up to 5% based on the dry weight of the microneedle. Accordingly, a product containing the polyphenol at high concentration can be prepared.

[4] = system: muscle cells and neuroblasts co-culture; test: Inhibition of muscle contraction in vitro by magnesium gluconate, co-cultured muscle cells and neuroblasts; type: cell-based; details: various concentrations, observed 10 minutes after treatment; FIG. 9
Description: After co-culturing muscle cells and neuroblasts in vitro and treating with magnesium gluconate at various concentrations, decrease in the number of muscle contractions was observed 10 minutes later.

Sequence of SNARE complex (SNAP25, SynH3 and Vps proteins) (P60880 whole entry): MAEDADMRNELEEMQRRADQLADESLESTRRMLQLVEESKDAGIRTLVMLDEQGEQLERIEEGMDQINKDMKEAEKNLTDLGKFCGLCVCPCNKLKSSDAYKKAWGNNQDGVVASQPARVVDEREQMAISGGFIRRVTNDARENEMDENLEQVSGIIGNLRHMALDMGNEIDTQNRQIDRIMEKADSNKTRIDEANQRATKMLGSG
Sequence of SNARE complex (SNAP25, SynH3 and Vps proteins) (Q16623 191-266 limits assumed): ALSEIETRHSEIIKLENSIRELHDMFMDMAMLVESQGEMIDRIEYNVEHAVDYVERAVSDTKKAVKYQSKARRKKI
Sequence of SNARE complex (SNAP25, SynH3 and Vps proteins) (P63027 1-94 limits assumed): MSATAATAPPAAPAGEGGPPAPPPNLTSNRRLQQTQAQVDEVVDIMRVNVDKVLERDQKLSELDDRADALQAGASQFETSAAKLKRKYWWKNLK

Compound	ability of inhibiting SNARE complex formation compared with myricetin [1]	inhibition of SNARE complex formation [1]	number of contractions of the C2C12 cells [2]	effect of inhibiting neurotransmitter release compared with myricetin [2]	ampelopsin content that can be contained in a cosmetic composition ([3]; based on 5% PEG-400 and 70% water)	ampelopsin content that the microneedle may contain ([3]; based on the dry weight of the microneedle)	number of muscle contractions [4]
O=C1c2c(O)cc(O)cc2O[C@H](c2cc(O)c(O)c(O)c2)[C@H]1O [ampelopsin]	better ability of inhibiting SNARE complex formation at low concentrations	effectively inhibit the SNARE complex formation in a concentration-dependent manner	reduce the number of contractions of the C2C12 cells	relatively higher effect of inhibiting the release than myricetin	less than 0.5%	up to 5%	–
O=c1c(O)c(-c2ccc(O)cc2)oc2cc(O)cc(O)c12 [kaempferol]	better ability of inhibiting SNARE complex formation at low concentrations	effectively inhibit the SNARE complex formation in a concentration-dependent manner	reduce the number of contractions of the C2C12 cells	relatively higher effect of inhibiting the release than myricetin	–	–	–
O=c1c(O)c(-c2cc(O)c(O)c(O)c2)oc2cc(O)cc(O)c12 [myricetin]	–	effectively inhibit the SNARE complex formation in a concentration-dependent manner	reduce the number of contractions of the C2C12 cells	–	–	–	–
magnesium gluconate	–	–	–	–	–	–	significant decrease in the number of muscle contractions as the concentration of magnesium gluconate was increased
